Measured values: patent publication US8912213B2, “Synthesis and use of dual tyrosyl-DNA phosphodiesterase I (TDP1)- topoisomerase I (TOP1) inhibitors” (Purdue Research Foundation, priority 2012, dated 2014)
Like-named read-outs stand apart in the source and are kept apart here.

How the values were obtained:
Tdp1 [1] = target: T1, Tdp1 (Homo sapiens (Human), UniProt Q9NUW8); test: Gel-based assay measuring the inhibition of recombinant Tdp1; format: biochemical;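 note: 5′-32P-labeled single-stranded DNA with 3′-phosphotyrosine incubated with 5 pM enzyme for 15 min at room temperature, inhibition seen as loss of 3′-phosphate product band by densitometry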
Description: Tdp1 inhibitory activity was measured by the drug's ability to inhibit the hydrolysis of the phosphodiester linkage between tyrosine and the 3′-end of the DNA substrate, and to prevent the generation of an oligonucleotide with a free 3′-phosphate (N14P). Therefore, the disappearance of the gel band for N14P indicated Tdp1 inhibition.
Gel-Based Assay Measuring the Inhibition of Recombinant Tdp1. A 5′-[^32P]-labeled single-stranded DNA oligonucleotide containing a 3′-phosphotyrosine (N14Y) was generated as described by Dexheimer et al. The DNA substrate was then incubated with 5 pM recombinant Tdp1 in the absence or presence of inhibitor for 15 min at room temperature in a buffer containing 50 mM Tris HCl, pH 7.5, 80 mM KCl, 2 mM EDTA, 1 mM DTT, 40 μg/ml BSA and 0.01% Tween-20. […] Gel images were scanned using a Typhoon 8600 (GE Healthcare) and densitometric analyses were performed using the ImageQuant software (GE Healthcare).

[2] = target: endogenous human Tdp1 in whole cell extract (Homo sapiens (Human), UniProt Q9NUW8); test: Gel-based assay measuring the inhibition of endogenous human Tdp1 in whole cell extract; format: biochemical; conditions: human Tdp1 in whole cell extract (WCE)
Description: Gel-Based Assay Measuring the Inhibition of Endogenous Human Tdp1 in Whole Cell Extract. 1×10^7 DT40 knockout cells for chicken Tdp1 and complemented with human Tdp1 were collected, washed and centrifuged. Cell pellet was then resuspended with 100 μL of CellLytic M Cell Lysis Reagent (SIGMA-Aldrich C2978). After 15 min, the lysate was centrifuged at a 12,000 g for 10 min and the supernatant was transferred to a new tube. Protein concentration was determined using a nanodrop spectrophotometer (Invitrogen) and the whole cell extract was stored at −80° C. […] Reactions were then treated similarly to the recombinant enzyme containing samples (see section above).
All compounds were first tested in gel based assays for Tdp1 inhibition using recombinant (rec.) human Tdp1 and only the active compounds were tested for human Tdp1 inhibition in whole cell extract (WCE). […] was included in all experiments as positive control.

Human recombinant Top1 = Human recombinant Top1 (Homo sapiens (Human), UniProt P11387); test: Topoisomerase I-mediated DNA cleavage reactions; format: biochemical; conditions: for Top1 inhibition (semiquantitative scale): series (A), relative to 1 μM camptothecin; for Top1 (compound-induced DNA cleavage, semiquantitative scale): series (B), relative to 1 μM camptothecin (90) or MJ-III-65 (91);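 for all read-outs here: 3′-end radiolabeled DNA substrate (about 2 nM) incubated with recombinant Top1 and compound for 20 min at 25 °C, cleavage products resolved by denaturing PAGE and phosphoimaging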
Description: Additionally, all indenoisoquinoline sulfonates and sulfonamides were tested for Top1 cleavage complex poisoning in a Top1-mediated DNA cleavage assay.
Topoisomerase I-Mediated DNA Cleavage Reactions. Human recombinant Top1 was purified from baculovirus as previously described. DNA cleavage reactions were prepared as previously reported with the exception of the DNA substrate. […] Unincorporated [^32P]dGTP was removed using mini Quick Spin DNA columns (Roche, Indianapolis, Ind.), and the eluate containing the 3′-end-labeled DNA substrate was collected. Approximately 2 nM radiolabeled DNA substrate was incubated with recombinant Top1 in 20 μL of reaction buffer [10 mM Tris-HCl (pH 7.5), 50 mM KCl, 5 mM MgCl2, 0.1 mM EDTA, and 15 μg/mL BSA] at 25° C. for 20 min in the presence of various concentrations of compounds. The reactions were terminated by adding SDS (0.5% final concentration) followed by the addition of two volumes of loading dye (80% formamide, 10 mM sodium hydroxide, 1 mM sodium EDTA, 0.1% xylene cyanol, and 0.1% bromphenol blue). Aliquots of each reaction mixture were subjected to 20% denaturing PAGE. Gels were dried and visualized by using a phosphoimager and ImageQuant software (Molecular Dynamics).
Topoisomerase I-Mediated DNA Cleavage Reactions. Top1 reactions were performed as recently described. […] The reactions were terminated by adding SDS (0.5% final concentration) followed by the addition of two volumes of loading dye (80% formamide, 10 mM sodium hydroxide, 1 mM sodium EDTA, 0.1% xylene cyanol, and 0.1% bromphenol blue). Reactions were subjected to 20% denaturing PAGE. Gels were dried and visualized by using a Typhoon 8600 and ImageQuant software (Molecular Dynamics).

[3] = test system: all human cancer cell lines successfully tested; test: NCI screen, mean graph midpoint (MGM) for growth inhibition; conditions: Homo sapiens
HOP-62 = test: NCI screen cytotoxicity, lung HOP-62; format: cell-based; conditions: Homo sapiens, 50% growth inhibition
HCT-116 = test: NCI screen cytotoxicity, colon HCT-116; format: cell-based; conditions: Homo sapiens, 50% growth inhibition
SF-539 = test: NCI screen cytotoxicity, CNS SF-539; format: cell-based; conditions: Homo sapiens, read-out: Cytotoxicity (GI50 in μM) CNS SF-539; 50% growth inhibition
UACC-62 = test: NCI screen cytotoxicity, melanoma UACC-62; format: cell-based; conditions: Homo sapiens, 50% growth inhibition
SN12C = test: NCI screen cytotoxicity, renal SN12C; format: cell-based; conditions: Homo sapiens, 50% growth inhibition
DU-145 = test: NCI screen cytotoxicity, prostate DU-145; format: cell-based; conditions: Homo sapiens, DU-145, read-out: Cytotoxicity (GI50 in μM) prostate DU-145; 50% growth inhibition
MDA-MB-435 = test: NCI screen cytotoxicity, breast MDA-MB-435; format: cell-based; conditions: Homo sapiens, MDA-MB-435, read-out: Cytotoxicity (GI50 in μM) breast MDA-MB-435; 50% growth inhibition
OVCAR-3 = test: NCI screen cytotoxicity, ovarian OVCAR-3; conditions: Homo sapiens, OVCAR-3, read-out: Cytotoxicity (GI50 in μM) ovarian OVCAR-3
Tdp1 [4] = target: T1, Tdp1; test: Surface plasmon resonance analysis; format: binding; conditions: immobilized Tdp1
Description: Surface Plasmon Resonance Analysis. Binding experiments were performed on a Biacore T100 instrument (GE, Piscataway N.J.). Tdp1 was amine coupled to a CM5 sensor chip (GE Healthcare, Piscataway N.J.). […] (EDC), N-hydroxysuccinimide (NHS) and ethanolamine were purchased from GE Heathcare, (Piscataway N.J.). Neutravidin was obtained from Pierce. In order to protect the amine groups within the active site from modification, Tdp1 was bound with a 14-base oligonucleotide before coupling to the surface. […] The CM5 chip surface was activated for 7 min. with 0.1 M NHS and 0.4 M EDC at a flow rate of 20 μL/min and Tdp1-oligonucleotide mixture was injected until approximately 4000 RU's was attached. Activated amine groups were quenched with an injection of 1 M solution of ethanolamine pH 8.0 for 7 min. Any bound oligonucleotide was removed by washing the surface with 1 M NaCl. A reference surface was prepared in the same manner without coupling of Tdp1. […] Following compound injections, the surface was regenerated with a 30 second injection 1 M NaCl, a 30 second injection of 50% DMSO (v/v) and a 30 second running buffer injection. Each cycle of compound injection was followed by buffer cycle for referencing purposes. A DMSO calibration curve was included to correct for refractive index mismatches between the running buffer and compound dilution series.
Surface Plasmon Resonance Analysis. […]

Tdp1 [5] = target: T1, Tdp1; conditions: known inhibitor; cited from earlier work

T1 sequence (Q9NUW8 whole entry): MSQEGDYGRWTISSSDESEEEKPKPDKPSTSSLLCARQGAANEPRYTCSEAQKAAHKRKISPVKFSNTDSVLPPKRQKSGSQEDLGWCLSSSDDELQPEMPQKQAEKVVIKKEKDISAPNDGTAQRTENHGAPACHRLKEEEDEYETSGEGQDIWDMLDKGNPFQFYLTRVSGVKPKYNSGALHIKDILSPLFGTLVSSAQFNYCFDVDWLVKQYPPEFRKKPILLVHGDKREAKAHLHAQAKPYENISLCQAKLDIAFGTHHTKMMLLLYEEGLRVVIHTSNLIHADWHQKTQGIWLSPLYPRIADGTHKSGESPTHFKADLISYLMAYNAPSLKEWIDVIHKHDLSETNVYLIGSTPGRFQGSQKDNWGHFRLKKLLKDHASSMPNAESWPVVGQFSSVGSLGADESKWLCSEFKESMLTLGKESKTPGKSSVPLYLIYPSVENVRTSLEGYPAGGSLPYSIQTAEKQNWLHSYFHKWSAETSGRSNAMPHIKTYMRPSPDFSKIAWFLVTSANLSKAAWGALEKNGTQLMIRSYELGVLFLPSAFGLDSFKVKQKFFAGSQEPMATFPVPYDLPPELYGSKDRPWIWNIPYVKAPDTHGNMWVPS
Sequence of Human recombinant Top1 (P11387 whole entry): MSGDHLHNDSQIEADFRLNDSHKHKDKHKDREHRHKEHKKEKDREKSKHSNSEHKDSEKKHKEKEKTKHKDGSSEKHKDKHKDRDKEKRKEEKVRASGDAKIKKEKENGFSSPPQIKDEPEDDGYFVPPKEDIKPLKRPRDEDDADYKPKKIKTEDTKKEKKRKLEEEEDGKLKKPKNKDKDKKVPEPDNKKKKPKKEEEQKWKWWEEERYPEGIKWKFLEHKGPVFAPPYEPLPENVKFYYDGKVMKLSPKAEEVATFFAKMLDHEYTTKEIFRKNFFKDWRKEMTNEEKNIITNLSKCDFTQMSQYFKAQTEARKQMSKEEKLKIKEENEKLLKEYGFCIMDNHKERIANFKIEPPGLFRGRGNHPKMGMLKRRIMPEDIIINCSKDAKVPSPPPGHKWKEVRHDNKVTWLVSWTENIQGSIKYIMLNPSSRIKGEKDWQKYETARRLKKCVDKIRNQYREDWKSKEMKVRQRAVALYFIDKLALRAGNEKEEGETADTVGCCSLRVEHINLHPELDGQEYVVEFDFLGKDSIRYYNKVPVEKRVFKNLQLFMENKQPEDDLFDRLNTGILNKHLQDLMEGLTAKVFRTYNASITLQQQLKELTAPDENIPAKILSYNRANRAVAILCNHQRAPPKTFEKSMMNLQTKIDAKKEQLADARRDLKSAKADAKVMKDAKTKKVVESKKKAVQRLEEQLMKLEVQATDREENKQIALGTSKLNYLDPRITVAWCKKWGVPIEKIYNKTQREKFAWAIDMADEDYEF
Sequence of endogenous human Tdp1 in whole cell extract (Q9NUW8 whole entry): as the sequence (Q9NUW8 whole entry) above

| SMILES | IC50 (Tdp1 [1]) [µM] | IC50 [2] [nM] | Top1 inhibition (semiquantitative scale) (Human recombinant Top1) | GI50 ([3]; read-out: MGM GI50) [µM] | GI50 (HOP-62) [µM] | GI50 (HCT-116) [µM] | GI50 (SF-539) [µM] | GI50 (UACC-62) [µM] | GI50 (SN12C) [µM] | GI50 (DU-145) [µM] | GI50 (MDA-MB-435) [µM] | GI50 (OVCAR-3) [µM] | GI50 ([3]; read-out: MGM (μM)) [µM] | IC50 (Tdp1 [1]; read-out: Tdp1 (μM) IC50) [µM] | Top1 (compound-induced DNA cleavage, semiquantitative scale) (Human recombinant Top1) | IC50 (Tdp1 [1]; series (B), determined by quadruplicate, read-out: Tdp1 (μM) IC50) [µM] | binding to Tdp1 by surface plasmon resonance (Tdp1 [4]) | Tdp1 inhibitory activity (in words) (Tdp1 [1]) | Tdp1 inhibition (in words) (Tdp1 [5]) |
| --- | --- | --- | --- | --- | --- | --- | --- | --- | --- | --- | --- | --- | --- | --- | --- | --- | --- | --- | --- |
| O=C1c2ccccc2-c2c1c1ccccc1c(=O)n2CCCNCCCNCCCn1c2c(c3ccccc3c1=O)C(=O)c1ccccc1-2 [Compound 145 of (A), Bis-1,3-{(5,6-dihydro-5,11-diketo-11 H-indeno[1,2-c]isoquinoline)-6-propyl-amino}propane Bis(trifluoroacetate)] | 1.5 | 1900 | ++++ | 0.394 |  |  |  |  |  |  |  |  |  |  |  |  |  |  |  |
| NCCCn1c2c(c3ccc(N)cc3c1=O)C(=O)c1ccccc1-2 [Compound 62 of (B)] |  |  |  |  | 0.27 | 0.18 | 0.34 | 0.3 | 0.23 | 0.12 | 0.23 | 0.13 | 0.16 |  |  |  |  |  |  |
| COc1ccc2c(c1)-c1c(c3ccc([N+](=O)[O-])cc3c(=O)n1CCCN)C2=O.Cl [Compound 51 of (B), 6-(3-Aminopropyl)-5,6-dihydro-8-methoxy-3-nitro-5,11-dioxo-11H-indeno[1,2-c]isoquinoline Hydrochloride] |  |  |  |  |  | 0.06 | 0.61 |  | 0.15 | 0.18 | 0.58 | 0.54 | 0.17 ± 0.017 | 15 ± 3 | ++ |  |  |  |  |
| Cl.NCCCn1c2c(c3ccc(NCC(=O)O)cc3c1=O)C(=O)c1ccccc1-2 [Compound 43 of (B), 2-((6-(3-Aminopropyl)-5,11-dioxo-6,11-dihydro-5H-indeno[1,2-c]isoquinolin-3-yl)amino)acetic Acid Hydrochloride] |  |  |  |  | 0.65 | 0.33 | 1.79 | 0.72 | 0.49 | 1.51 | 1.14 | 1.6 | 0.87 ± 0.014 |  | 0 | 5 ± 1.4 |  |  |  |
| Cl.NCCCn1c2c(c3ccccc3c1=O)C(=O)c1ccccc1-2 [Compound 70 of (A)] |  |  | +++ (between 75% and 95% activity) |  |  |  |  |  |  |  |  |  |  |  |  |  | direct binding |  |  |
| CCOC(=O)CNc1ccc2c3c(n(CCCN)c(=O)c2c1)-c1ccccc1C3=O.Cl [Compound 40 of (B), Ethyl 2-[(6-(3-Aminopropyl)-5,11-dioxo-6,11-dihydro-5H-indeno[1,2-c]isoquinolin-3-yl)amino]acetate Hydrochloride] |  |  |  |  | 0.93 | 0.44 | 8.91 | 2.25 | 1.75 | 1.68 | 3.05 | 3.12 | 1.69 | 11 ± 5 |  |  |  | active |  |
| [O]=[V]([O-])([O-])[O-] [vanadate] |  |  |  |  |  |  |  |  |  |  |  |  |  |  |  |  |  |  | inhibition at millimolar concentrations |
